Laboratory results: PMC5720837, “Identification of a 4-fluorobenzyl L-valinate amide benzoxaborole (AN11736) as a potential development candidate for the treatment of Animal African Trypanosomiasis (AAT)” (Bioorganic & Medicinal Chemistry Letters, 2018)

Tested on: Trypanosoma vivax (T. vivax STIB719/ILRAD 560 strain), bloodstream form
Assay: Whole cell Alamar Blue assay, T. vivax (48 h ex vivo)
Format: cell-based
Details: Trypanosoma vivax; T. vivax STIB719/ILRAD 560, 48 h ex vivo Alamar Blue assay
Protocol: (§1) Activity of compounds 1–71 against T. congolense and T. vivax was determined using the whole cell assays as described ^6 and their IC50 values are summarized in Table 1.
(§2) [6] Assay methods for determination of T. c. and T. v. […] Culture media consisted of complete HMI-9 (IMDM) with 20% bovine serum. To ensure log growth phase, trypanosomes were sub-cultured at appropriate dilutions every 2–3 days. Bloodstream form Trypanosoma vivax (T. vivax) cannot be cultured axenically, therefore trypanosomes (T. vivax STIB719/ILRAD 560 strain) were harvested from a highly parasitemia mouse via cardiac puncture and used directly in the ex vivo drug sensitivity assay on the same day. […] Parasite starting concentrations of 2 × 10^5 (T. c.) and 4 × 10^5 (T. v.) were calculated respectively, using a cell analyzer system or haemo-cytometer, followed by quantification at 536 nm excitation and 588 nm emission wavelengths using a […] reader. Test compounds were prepared as 10 mg/mL DMSO stocks for each assay run. Compounds were assayed in at least three separate, independent test runs and an 11-point dilution curve was used to determine the IC50 values. Data points were averaged to generate sigmoidal dose-response curves and IC50 values were determined using Softmax Pro 5.2 software.

Row | Compound | IC50 [nM]
1 | Cc1c(C(=O)N[C@H](C(=O)OCc2cnccn2)C(C)C)ccc2c1B(O)OC2 [Compound 39] | 0.24
2 | Cc1c(C(=O)N[C@H](C(=O)OCc2nccc(C(F)(F)F)n2)C(C)C)ccc2c1B(O)OC2 [Compound 41] | 0.11
3 | Cc1c(C(=O)N[C@H](C(=O)OCc2ccc3ncccc3c2)C(C)C)ccc2c1B(O)OC2 [Compound 46] | 0.24
4 | Cc1c(C(=O)N[C@H](C(=O)OCc2cnc3ccccc3n2)C(C)C)ccc2c1B(O)OC2 [Compound 47] | 0.081
5 | Cc1c(C(=O)N[C@H](C(=O)OCc2ncc3ccccc3n2)C(C)C)ccc2c1B(O)OC2 [Compound 48] | 0.71
6 | Cc1c(C(=O)N[C@H](C(=O)OCc2ccc(OCCN3CCCC3)cc2)C(C)C)ccc2c1B(O)OC2 [Compound 49] | 68
7 | Cc1c(C(=O)N[C@H](C(=O)OCc2cccc(CN3CCN(C)CC3)c2)C(C)C)ccc2c1B(O)OC2 [Compound 52] | 0.29
8 | Cc1c(C(=O)N[C@H](C(=O)OCc2cccc(CN3CCOCC3)c2)C(C)C)ccc2c1B(O)OC2 [Compound 53] | 0.35
9 | Cc1c(C(=O)N[C@H](C(=O)OCc2ccc(S(=O)(=O)N3CCN(C)CC3)cc2)C(C)C)ccc2c1B(O)OC2 [Compound 54] | 0.37
10 | COC(=O)[C@@H](NC(=O)c1ccc2c(c1C)B(O)OC2)C(C)C [Compound 55] | 3.3

Tested on: T. c. parasites (STIB736/IL1180 strain)
Assay: In vivo mouse model of T. congolense infection
Set-up: species or system NMRI female mice
Details: 1 × 10 mg/kg, intraperitoneal, monitored 60 days post treatment
Protocol: (§3) Selected compounds were screened in both mouse and bovine in vitro metabolic stability assays (mouse S9 and bovine S9), as summarized in Table 2. These two species were chosen because the primary in vivo assays were conducted in mice, and the target animal of this research program is cattle. […] We evaluated the efficacy of selected compounds in two in vivo mouse models of infection, against T. congolense and T. vivax, respectively. Mice were infected with either 1 × 10^5 T. c. parasites or 1 × 10^4 T. v. parasites, and then treated with a test compound via intraperitoneal administration for 1, 2 or 4 consecutive days. The mice were then monitored for the presence of parasitemia for up to 60 days post treatment.[7] We tested in T. c. model first, then followed up with T. v. for interesting compounds. […] We selected compound 5 (AN11736) to progress to exploratory studies to determine the efficacy and safety in a preliminary formulation against induced infections of T. vivax and T. congolense in cattle.[8]
(§4) [7] Methods for testing compound efficacy in mouse models: In vivo mouse efficacy studies were performed at the Swiss TPH, using established mouse models of infection for T. c. and T. v. NMRI female mice were independently infected either with 1 × 10^5T. c. parasites/mouse (STIB736/IL1180 strain) or 1 × 10^4T. v. parasites/mouse (STIB719/ILRAD560 strain) using an intraperitoneal route. Parasitemia was allowed to develop over 7 days (T. c.) or 3 days (T. v.), respectively, before treatment was administered. Compounds were administered via intraperitoneal injection in 10% DMSO/water. Four mice were used per treatment group. Mice were monitored for the presence of trypanosomes, via tail blood examination microscopically with twice-per-week parasitemia checks for 60 days post treatment. Parasitemia was graded on a scale of 0–3, with 0 indicating no trypanosomes seen in 20 fields of view, 1 indicating the presence of 1–5 trypanosomes per field, 2 indicating the presence of 6–20 trypanosomes per field and 3 indicating greater than 20 trypanosomes per field. Mice scoring 2 or 3 were immediately euthanized. After 60 days, aparasitemic mice were considered cured. Untreated control mice survive on average for 10 and 6 days post infection for T. c. and T. v., respectively. All in vivo mouse experiments were conducted in accordance with the strict guidelines set out by the Swiss Federal Veterinary Office, under the ethical approval of license number #2813.

Row | Compound | Efficacy in mouse model T. c., n/m (mice survived / total mice in group)
11 | Cc1c(C(=O)N[C@H](C(=O)OCc2cnccn2)C(C)C)ccc2c1B(O)OC2 [Compound 39] | 0/4 (1 × 10)
12 | Cc1c(C(=O)N[C@H](C(=O)OCc2nccc(C(F)(F)F)n2)C(C)C)ccc2c1B(O)OC2 [Compound 41] | 0/4 (1 × 10)
13 | Cc1c(C(=O)N[C@H](C(=O)OCc2ccc3ncccc3c2)C(C)C)ccc2c1B(O)OC2 [Compound 46] | 1/4 (1 × 10)
14 | Cc1c(C(=O)N[C@H](C(=O)OCc2cnc3ccccc3n2)C(C)C)ccc2c1B(O)OC2 [Compound 47] | 0/4 (1 × 10)
15 | Cc1c(C(=O)N[C@H](C(=O)OCc2ncc3ccccc3n2)C(C)C)ccc2c1B(O)OC2 [Compound 48] | 1/4 (1 × 10)
16 | Cc1c(C(=O)N[C@H](C(=O)OCc2ccc(OCCN3CCCC3)cc2)C(C)C)ccc2c1B(O)OC2 [Compound 49] | 2/4 (1 × 10)
17 | Cc1c(C(=O)N[C@H](C(=O)OCc2cccc(CN3CCN(C)CC3)c2)C(C)C)ccc2c1B(O)OC2 [Compound 52] | 0/4 (1 × 10)
18 | Cc1c(C(=O)N[C@H](C(=O)OCc2cccc(CN3CCOCC3)c2)C(C)C)ccc2c1B(O)OC2 [Compound 53] | 0/4 (1 × 10)
19 | Cc1c(C(=O)N[C@H](C(=O)OCc2ccc(S(=O)(=O)N3CCN(C)CC3)cc2)C(C)C)ccc2c1B(O)OC2 [Compound 54] | 0/4 (1 × 10)
20 | COC(=O)[C@@H](NC(=O)c1ccc2c(c1C)B(O)OC2)C(C)C [Compound 55] | 0/4 (1 × 10)

Same assay, conditions: 2 × 10 mg/kg, intraperitoneal, monitored 60 days post treatment

Row | Compound | Efficacy in mouse model T. c., n/m (mice survived / total mice in group)
21 | CC(C)[C@H](NC(=O)c1ccc2c(c1F)B(O)OC2)C(=O)OCc1ccc(F)cc1 [Compound 21] | 1/4 (2 × 10)

Same assay, conditions: single dose of 10 mg/kg, IP

Row | Compound | curative efficacy in the T. c.-infected mouse model [%]
22 | Cc1c(C(=O)N[C@H](C(=O)OCc2ccc(OCCN3CCCC3)cc2)C(C)C)ccc2c1B(O)OC2 [Compound 49] | ≥ 50

Tested on: not listed separately
Assay: In vitro metabolic stability, bovine S9
Format: in vitro ADME
Details: S9 fraction
Protocol: as §3

Row | Compound | microsomal CLint [µL/min/mg]
23 | CC(C)[C@H](NC(=O)c1ccc2c(c1F)B(O)OC2)C(=O)OCc1ccc(F)cc1 [Compound 21] | < 1
24 | Cc1c(C(=O)N[C@H](C(=O)OCc2cnccn2)C(C)C)ccc2c1B(O)OC2 [Compound 39] | 3.9
25 | Cc1c(C(=O)N[C@H](C(=O)OCc2nccc(C(F)(F)F)n2)C(C)C)ccc2c1B(O)OC2 [Compound 41] | 1.8
26 | Cc1c(C(=O)N[C@H](C(=O)OCc2ccc3ncccc3c2)C(C)C)ccc2c1B(O)OC2 [Compound 46] | 7
27 | Cc1c(C(=O)N[C@H](C(=O)OCc2cnc3ccccc3n2)C(C)C)ccc2c1B(O)OC2 [Compound 47] | 10
28 | Cc1c(C(=O)N[C@H](C(=O)OCc2ncc3ccccc3n2)C(C)C)ccc2c1B(O)OC2 [Compound 48] | 23
29 | Cc1c(C(=O)N[C@H](C(=O)OCc2ccc(OCCN3CCCC3)cc2)C(C)C)ccc2c1B(O)OC2 [Compound 49] | 4
30 | Cc1c(C(=O)N[C@H](C(=O)OCc2cccc(CN3CCN(C)CC3)c2)C(C)C)ccc2c1B(O)OC2 [Compound 52] | 6
31 | Cc1c(C(=O)N[C@H](C(=O)OCc2cccc(CN3CCOCC3)c2)C(C)C)ccc2c1B(O)OC2 [Compound 53] | 6.8
32 | Cc1c(C(=O)N[C@H](C(=O)OCc2ccc(S(=O)(=O)N3CCN(C)CC3)cc2)C(C)C)ccc2c1B(O)OC2 [Compound 54] | 3.8
33 | COC(=O)[C@@H](NC(=O)c1ccc2c(c1C)B(O)OC2)C(C)C [Compound 55] | 3.1

Tested on: not listed separately
Assay: In vitro metabolic stability, mouse S9
Format: in vitro ADME
Details: S9 fraction
Protocol: as §3

Row | Compound | microsomal CLint [µL/min/mg]
34 | CC(C)[C@H](NC(=O)c1ccc2c(c1F)B(O)OC2)C(=O)OCc1ccc(F)cc1 [Compound 21] | < 1
35 | Cc1c(C(=O)N[C@H](C(=O)OCc2cnccn2)C(C)C)ccc2c1B(O)OC2 [Compound 39] | 1.6
36 | Cc1c(C(=O)N[C@H](C(=O)OCc2nccc(C(F)(F)F)n2)C(C)C)ccc2c1B(O)OC2 [Compound 41] | 1.3
37 | Cc1c(C(=O)N[C@H](C(=O)OCc2ccc3ncccc3c2)C(C)C)ccc2c1B(O)OC2 [Compound 46] | 7.4
38 | Cc1c(C(=O)N[C@H](C(=O)OCc2cnc3ccccc3n2)C(C)C)ccc2c1B(O)OC2 [Compound 47] | 4.8
39 | Cc1c(C(=O)N[C@H](C(=O)OCc2ncc3ccccc3n2)C(C)C)ccc2c1B(O)OC2 [Compound 48] | 4
40 | Cc1c(C(=O)N[C@H](C(=O)OCc2ccc(OCCN3CCCC3)cc2)C(C)C)ccc2c1B(O)OC2 [Compound 49] | 1.5
41 | Cc1c(C(=O)N[C@H](C(=O)OCc2cccc(CN3CCN(C)CC3)c2)C(C)C)ccc2c1B(O)OC2 [Compound 52] | 1.8
42 | Cc1c(C(=O)N[C@H](C(=O)OCc2cccc(CN3CCOCC3)c2)C(C)C)ccc2c1B(O)OC2 [Compound 53] | 5.4
43 | Cc1c(C(=O)N[C@H](C(=O)OCc2ccc(S(=O)(=O)N3CCN(C)CC3)cc2)C(C)C)ccc2c1B(O)OC2 [Compound 54] | 5.5
44 | COC(=O)[C@@H](NC(=O)c1ccc2c(c1C)B(O)OC2)C(C)C [Compound 55] | < 1

Tested on: Trypanosoma congolense (T. congolense IL-3000 strain), bloodstream form
Assay: Whole cell Alamar Blue assay, T. congolense (72 h in vitro)
Format: cell-based
Details: Trypanosoma congolense, 72 h, T. congolense IL-3000, 72 h in vitro Alamar Blue assay
Protocol: as §1, §2

Row | Compound | IC50 [nM]
45 | CC(C)[C@H](NC(=O)c1ccc2c(c1F)B(O)OC2)C(=O)OCc1ccc(F)cc1 [Compound 21] | 28
46 | Cc1c(C(=O)N[C@H](C(=O)OCc2cnccn2)C(C)C)ccc2c1B(O)OC2 [Compound 39] | 0.57
47 | Cc1c(C(=O)N[C@H](C(=O)OCc2nccc(C(F)(F)F)n2)C(C)C)ccc2c1B(O)OC2 [Compound 41] | 0.78
48 | Cc1c(C(=O)N[C@H](C(=O)OCc2ccc3ncccc3c2)C(C)C)ccc2c1B(O)OC2 [Compound 46] | 0.42
49 | Cc1c(C(=O)N[C@H](C(=O)OCc2cnc3ccccc3n2)C(C)C)ccc2c1B(O)OC2 [Compound 47] | 0.2
50 | Cc1c(C(=O)N[C@H](C(=O)OCc2ncc3ccccc3n2)C(C)C)ccc2c1B(O)OC2 [Compound 48] | < 0.005
51 | Cc1c(C(=O)N[C@H](C(=O)OCc2ccc(OCCN3CCCC3)cc2)C(C)C)ccc2c1B(O)OC2 [Compound 49] | 0.39
52 | Cc1c(C(=O)N[C@H](C(=O)OCc2cccc(CN3CCN(C)CC3)c2)C(C)C)ccc2c1B(O)OC2 [Compound 52] | 1.3
53 | Cc1c(C(=O)N[C@H](C(=O)OCc2cccc(CN3CCOCC3)c2)C(C)C)ccc2c1B(O)OC2 [Compound 53] | 0.51
54 | Cc1c(C(=O)N[C@H](C(=O)OCc2ccc(S(=O)(=O)N3CCN(C)CC3)cc2)C(C)C)ccc2c1B(O)OC2 [Compound 54] | 1
55 | COC(=O)[C@@H](NC(=O)c1ccc2c(c1C)B(O)OC2)C(C)C [Compound 55] | 4.2

Tested on: T. v. parasites (STIB719/ILRAD560 strain)
Assay: In vivo mouse model of T. vivax infection
Set-up: species or system NMRI female mice
Details: 1 × 10 mg/kg, intraperitoneal, monitored 60 days post treatment
Protocol: as §3, §4

Row | Compound | Efficacy in mouse model T. v., n/m (mice survived / total mice in group)
56 | Cc1c(C(=O)N[C@H](C(=O)OCc2ccc(OCCN3CCCC3)cc2)C(C)C)ccc2c1B(O)OC2 [Compound 49] | 4/4 (1 × 10)

Same assay, conditions: 2 × 10 mg/kg, intraperitoneal, monitored 60 days post treatment

Row | Compound | Efficacy in mouse model T. v., n/m (mice survived / total mice in group)
57 | CC(C)[C@H](NC(=O)c1ccc2c(c1F)B(O)OC2)C(=O)OCc1ccc(F)cc1 [Compound 21] | 4/4 (2 × 10)

Same assay, conditions: single dose of 10 mg/kg, IP

Row | Compound | curative efficacy in the T. v.-infected mouse model [%]
58 | Cc1c(C(=O)N[C@H](C(=O)OCc2ccc(OCCN3CCCC3)cc2)C(C)C)ccc2c1B(O)OC2 [Compound 49] | 100
